{"source": "paper PMC6027146", "about": "“Synthesis and Structure-Activity Relationships of (−)-cis-N-Normetazocine-Based LP1 Derivatives” (Pharmaceuticals, 2018)", "key": {"recombinant human MOR": {"target": "T1, recombinant human MOR (Homo sapiens, UniProt P35372)", "T1 construct": "expressed in transfected cells; gift of Dr. Larry Toll (SRI International); infected with a retrovirus for Gαqi5", "T1 sequence (P35372 whole entry)": "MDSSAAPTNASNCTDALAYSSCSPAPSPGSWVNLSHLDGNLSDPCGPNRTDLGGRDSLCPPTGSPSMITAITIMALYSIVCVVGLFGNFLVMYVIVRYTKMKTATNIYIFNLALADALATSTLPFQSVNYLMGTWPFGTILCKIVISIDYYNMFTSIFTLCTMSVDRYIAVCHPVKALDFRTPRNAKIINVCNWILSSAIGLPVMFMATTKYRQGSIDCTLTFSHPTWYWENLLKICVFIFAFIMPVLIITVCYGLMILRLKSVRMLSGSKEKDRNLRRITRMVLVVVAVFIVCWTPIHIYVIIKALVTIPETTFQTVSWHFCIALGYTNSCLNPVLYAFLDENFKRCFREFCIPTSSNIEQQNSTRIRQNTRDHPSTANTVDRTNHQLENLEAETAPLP", "assay": "Calcium mobilization assay, CHO-MOR cells expressing Gαqi5", "format": "cell-based", "method": "CHO cells, expressing human opioid receptors and the Gαqi5 protein, and CHODOR, expressing the GαqG66Di5 protein, were maintained in culture medium consisting of Dulbecco minimum essential medium (DMEM) and Ham F-12 (1:1) (50/50) supplemented with 10% fetal calf serum (FCS), L-glutamine (2 mM), geneticin (200 μg/mL; G418), hygromycin B (100 μg/mL) at 37 °C in 5% CO2 humidified air. When confluence was reached (3–4 days), cells were subcultured as required using trypsin/EDTA, and used for experimentation. The different cell lines were seeded at a density of 50,000–40,000 cells/well into black 96-well, clear-bottomed plates. […] After placing both plates (cell culture and compound plate) into the FlexStation II (Molecular Device, Union City, San Jose, CA 94587, USA), fluorescence changes were measured at room temperature. […] Maximum change in fluorescence, expressed in percent of baseline fluorescence, was used to determine agonist response.\nIn calcium mobilization experiments, data were analyzed by non-linear curve fitting equation, using GraphPad 5.0 software. […] Ligand efficacy was expressed as intrinsic activity (α), calculated as the ratio between the Emax of the ligand and that of the respective standards. Calcium mobilization data were expressed as FIU (fluorescence intensity units) in percent, over the baseline. […]"}, "human-KOR": {"target": "human-KOR (Homo sapiens, UniProt P41145)", "sequence (P41145 whole entry)": "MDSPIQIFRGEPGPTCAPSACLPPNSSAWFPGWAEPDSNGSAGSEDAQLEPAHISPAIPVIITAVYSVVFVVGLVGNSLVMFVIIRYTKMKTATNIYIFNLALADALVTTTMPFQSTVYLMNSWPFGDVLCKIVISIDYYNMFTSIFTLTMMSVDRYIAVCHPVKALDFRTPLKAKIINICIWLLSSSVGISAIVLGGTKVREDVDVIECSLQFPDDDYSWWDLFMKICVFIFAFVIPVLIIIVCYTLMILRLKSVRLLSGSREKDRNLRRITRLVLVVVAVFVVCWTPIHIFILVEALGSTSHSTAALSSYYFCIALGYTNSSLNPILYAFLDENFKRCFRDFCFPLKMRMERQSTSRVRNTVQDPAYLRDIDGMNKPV", "assay": "Calcium mobilization assay, CHO-KOR cells expressing Gαqi5", "format": "cell-based", "design": "expressed in transfected cells; gift of Dr. Larry Toll (SRI International); infected with a retrovirus for Gαqi5", "conditions": "agonist mode; Inactive = inactive at 10 μM; crc incomplete = incomplete concentration response curve at 10 μM; listed as LP1 (1)", "procedure": "The pharmacological characterization of LP1 derivatives 2 and 10–16 was performed by calcium mobilization assay (Table 2). This procedure was preliminarily validated through a series of experiments where the effects of DPDPE, dermorphin, and dynorphin A were assessed in CHO cells expressing the human recombinant opioid receptors and Gαqi5 or GαqG66Di5 chimeric proteins.\nChinese hamster ovary (CHO) cells expressing the recombinant human MOR and KOR (CHO^MOR and CHO^KOR) were kindly provided by Dr. Larry Toll (SRI International, Menlo Park, CA, USA), and CHO cells expressing the recombinant human DOR (CHO^DOR) were supplied by Dr. Eva Varga (Department of Medical Pharmacology, The University of Arizona, Tucson, AZ, USA). CHO cells lines permanently coexpressing the opioid receptors and the C-terminally modified Gαqi5 were prepared by infecting the CHO lines described above with a recombinant retrovirus expressing the chimeric α subunit and the hygromycin resistance gene. Similarly, CHO cells lines permanently coexpressing DOR and the C-terminally modified GαqG66Di5 were prepared by infecting the CHO lines described above with a recombinant retrovirus expressing the chimeric α subunit and the hygromycin resistance gene. Polyclonal cell lines were generated using the pantropic retroviral expression system form BD-Clontech, as described previously. Stable lines were selected under hygromycin B (100 μg/mL) and geneticin (600 μg/mL) for 2–3 weeks after the infection.\nCHO cells, expressing human opioid receptors and the Gαqi5 protein, and CHODOR, expressing the GαqG66Di5 protein, were maintained in culture medium consisting of Dulbecco minimum essential medium (DMEM) and Ham F-12 (1:1) (50/50) supplemented with 10% fetal calf serum (FCS), L-glutamine (2 mM), geneticin (200 μg/mL; G418), hygromycin B (100 μg/mL) at 37 °C in 5% CO2 humidified air. When confluence was reached (3–4 days), cells were subcultured as required using trypsin/EDTA, and used for experimentation. The different cell lines were seeded at a density of […] into black 96-well, clear-bottomed plates. After 24 h incubation, the cells were loaded with medium supplemented with 2.5 mM probenecid, 3 μM of the calcium sensitive fluorescent dye Fluo-4 AM, and 0.01% pluronic acid, for 30 min at 37 °C. Afterwards, the loading solution was aspirated and 100 μL/well of assay buffer—HBSS supplemented with 20 mM HEPES, 2.5 mM probenecid and 500 μM Brilliant Black (Aldrich, St. Louis, MO, USA)—was added. Serial dilutions of ligands for experimental use were made in HBSS/HEPES (20 mM) buffer (containing 0.005% BSA fraction V). After placing both plates (cell culture and compound plate) into the FlexStation II (Molecular Device, Union City, San Jose, CA 94587, USA), fluorescence changes were measured at room temperature. Online additions were carried out in a volume of 50 μL/well. Antagonists were incubated 15 min before the addition of the agonist. Maximum change in fluorescence, expressed in percent of baseline fluorescence, was used to determine agonist response.\nAnalysis of the binding data was performed using the Origin 7.5 software (OriginLab Corporation, Northampton, MA, USA). In calcium mobilization experiments, data were analyzed by non-linear curve fitting equation, using GraphPad 5.0 software. […] Ligand efficacy was expressed as intrinsic activity (α), calculated as the ratio between the Emax of the ligand and that of the respective standards. Calcium mobilization data were expressed as FIU (fluorescence intensity units) in percent, over the baseline. Agonist potencies are given as pEC50 (the negative logarithm to base 10 of the molar concentration of an agonist that produces 50% of the maximal possible effect, Emax). Concentration response curves to agonists were fitted with the following equation: Effect = baseline + (Emax − baseline)/(1+10^(LogEC50 − X) ∗ HillSlope) where X is the agonist concentration. […]"}}}
{"smiles": "C[C@H]1[C@H]2Cc3ccc(O)cc3[C@]1(C)CCN2CCC(=O)Nc1ccccc1", "note": "[LP1, 3-[(2R,6R,11R)-8-hydroxy-6,11-dimethyl-1,4,5,6-tetrahydro-2,6-methano-3-benzazocin-3(2H)-yl]-N-phenylpropanamide, reference compound]", "values": [{"measurement": "EC50", "setting": "recombinant human MOR", "result": 0.0977, "unit": "µM"}, {"measurement": "intrinsic activity (α) at MOR", "setting": "recombinant human MOR; ratio of Emax of ligand to that of the standard", "result": "0.40 ± 0.020"}, {"measurement": "KOR pEC50 (CL95%)", "setting": "human-KOR", "result": "crc incomplete ^d"}]}
